Experimental data: patent publication US20230066011A1, “PYRROLOPYRIMIDINE DERIVATIVE, AND PHARMACEUTICAL COMPOSITION FOR PREVENTING OR TREATING PROTEIN KINASE-RELATED DISEASE COMPRISING SAME AS ACTIVE INGREDIENT” (VORONOI CO., LTD., priority 2019, published 2023)

How the values were obtained:
human GST-CLK1 = target: T1, human GST-CLK1 (Homo sapiens, UniProt P49759); experiment: GST-CLK1 enzyme inhibition, ADP-Glo kinase assay; type: biochemical; conditions: ATP 10 μM, GST-CLK1 129-end
T1 construct: purified human GST-CLK1 (129-end, SignalChem) enzyme; purchased SignalChem
T1 sequence (P49759 129-484 limits assumed): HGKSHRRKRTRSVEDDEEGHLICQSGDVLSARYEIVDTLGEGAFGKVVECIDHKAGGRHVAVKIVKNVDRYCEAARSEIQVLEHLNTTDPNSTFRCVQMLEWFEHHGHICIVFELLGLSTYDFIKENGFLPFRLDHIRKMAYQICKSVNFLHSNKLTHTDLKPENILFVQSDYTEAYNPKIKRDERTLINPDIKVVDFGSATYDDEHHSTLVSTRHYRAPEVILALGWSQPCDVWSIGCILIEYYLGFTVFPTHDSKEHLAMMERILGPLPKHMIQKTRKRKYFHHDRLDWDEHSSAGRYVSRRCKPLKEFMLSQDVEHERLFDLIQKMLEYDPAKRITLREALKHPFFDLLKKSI
Outline: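 Human GST-CLK1 (129-end, 3 ng) reacted with substrate and 10 μM ATP for 1 h at 25° C in 40 mM Tris-HCl pH 7.4, 20 mM MgCl2, 0.5 mg/mL BSA, 50 μM DTT. ADP-Glo luminescence was normalised to solvent control; IC50 (nM) from 3 data sets.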

TNF-α = experiment: Inhibition of LPS-induced TNF-α secretion of THP-1 monocytes (ELISA); type: cell-based, human; conditions: Homo sapiens, THP-1; compound 0.5 μM, LPS 500 ng/mL, 24 hours; read-out: THP-1/TNF-α (% inhib)
Protocol: (§1) To evaluate an inhibitory effect on cytokine secretion of monocytes, THP-1 cells (ATCC, #TIB-202) as a human-derived monocyte line were cultured in an RPMI-1640 (Hyclone, SH30027.01) medium supplemented with 10% fetal bovine serum (Hyclone, SH30084.03), 1% penicillin streptomycin (Welgene, LS202-02), and 50 μM 2-mercaptoethanol (Gibco, #21985023). In the test, the cells were seeded in a 48-well plate (SPL, #30048) at a density of 1.5 to 2×10^5 cells/250 μL per well, and cultured at 37° C. for 16 hours in a 5% CO2 incubator. Thereafter, the compound was diluted with DMSO so that the final concentration of the compound was 0.5 μM. Then, the cells were treated with the diluted compound before an hour of treatment with lipopolysaccharides (LPS) (Sigma, #L6529). After the treatment with the compound, the cells were treated with LPS so that the final concentration was 500 ng/mL. Then, a cell culture broth was collected after 24 hours of culture, and levels of cytokine IL-6 (R&D Systems, #D6050) and TNF-α (R&D Systems, #DTA00D) comprised in the culture broth were measured using respective ELISA kits. After an experiment was performed according to the manufacturer's guidelines, cell analysis was performed by measuring the optical density at 450 nm using a microplate reader.

IL-6 = experiment: Inhibition of LPS-induced IL-6 secretion of THP-1 monocytes (ELISA); type: cell-based, human; conditions: Homo sapiens, THP-1; compound 0.5 μM, LPS 500 ng/mL, 24 hours; read-out: THP1/IL6 (% inhib)
Protocol: as §1

LRRK2 = LRRK2 (Homo sapiens, UniProt Q5S007); experiment: LRRK2 enzyme inhibition, ADP-Glo kinase assay; type: biochemical; parameters: purchased Invitrogen PR8604B; conditions: ATP 10 μM
LRRK2, sequence (Q5S007 970-2527 limits assumed): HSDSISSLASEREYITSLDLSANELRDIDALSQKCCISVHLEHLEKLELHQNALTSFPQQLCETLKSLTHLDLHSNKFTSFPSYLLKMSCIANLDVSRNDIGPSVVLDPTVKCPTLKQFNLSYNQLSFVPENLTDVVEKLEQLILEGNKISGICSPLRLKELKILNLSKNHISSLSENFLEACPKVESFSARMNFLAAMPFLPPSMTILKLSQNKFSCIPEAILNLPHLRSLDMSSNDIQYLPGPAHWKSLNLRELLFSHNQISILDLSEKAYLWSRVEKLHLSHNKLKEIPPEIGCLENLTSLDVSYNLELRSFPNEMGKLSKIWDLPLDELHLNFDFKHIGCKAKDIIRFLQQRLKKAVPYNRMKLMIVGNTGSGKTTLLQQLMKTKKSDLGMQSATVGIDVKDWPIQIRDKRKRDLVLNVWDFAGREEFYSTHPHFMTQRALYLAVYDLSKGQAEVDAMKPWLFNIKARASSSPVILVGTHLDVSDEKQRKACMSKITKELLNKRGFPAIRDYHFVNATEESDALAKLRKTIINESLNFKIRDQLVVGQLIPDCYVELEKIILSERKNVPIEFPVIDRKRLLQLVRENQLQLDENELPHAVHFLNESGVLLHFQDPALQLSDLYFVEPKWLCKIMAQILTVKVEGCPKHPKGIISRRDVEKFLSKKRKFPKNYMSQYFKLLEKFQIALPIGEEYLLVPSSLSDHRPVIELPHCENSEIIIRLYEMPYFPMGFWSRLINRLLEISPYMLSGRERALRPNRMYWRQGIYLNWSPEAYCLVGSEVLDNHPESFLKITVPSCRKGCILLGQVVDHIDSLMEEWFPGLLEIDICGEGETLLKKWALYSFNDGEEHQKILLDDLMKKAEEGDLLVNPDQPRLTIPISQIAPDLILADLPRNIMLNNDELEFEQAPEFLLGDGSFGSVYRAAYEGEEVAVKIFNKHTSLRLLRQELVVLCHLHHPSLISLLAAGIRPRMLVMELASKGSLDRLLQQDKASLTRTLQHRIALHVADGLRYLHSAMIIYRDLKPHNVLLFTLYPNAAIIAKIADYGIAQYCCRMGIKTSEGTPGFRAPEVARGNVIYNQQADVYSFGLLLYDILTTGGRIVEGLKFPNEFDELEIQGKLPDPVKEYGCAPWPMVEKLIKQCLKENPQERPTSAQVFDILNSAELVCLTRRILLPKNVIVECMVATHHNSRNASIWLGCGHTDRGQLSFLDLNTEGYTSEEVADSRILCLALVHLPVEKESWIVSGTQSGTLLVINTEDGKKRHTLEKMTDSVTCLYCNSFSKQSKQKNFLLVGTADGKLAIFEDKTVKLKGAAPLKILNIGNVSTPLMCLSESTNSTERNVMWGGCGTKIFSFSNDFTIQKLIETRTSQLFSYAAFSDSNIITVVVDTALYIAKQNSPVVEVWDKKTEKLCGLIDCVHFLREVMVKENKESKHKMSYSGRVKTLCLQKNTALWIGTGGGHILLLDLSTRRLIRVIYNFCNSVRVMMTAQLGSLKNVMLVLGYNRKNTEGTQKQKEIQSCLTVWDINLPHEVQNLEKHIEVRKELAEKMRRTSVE
Outline: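 Purified human LRRK2 (25 ng) with 10 μM ATP and 0.2 μg substrate in 40 mM Tris-HCl pH 7.4, 20 mM MgCl2, 0.5 mg/mL BSA, 50 μM DTT, 2 h at 25° C. ADP-Glo luminescence; 12-point compound series from 50 μM final; IC50 relative to solvent control.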

LRRK2 (G2019S) = LRRK2 (G2019S) (Homo sapiens, UniProt Q5S007, G2019S); experiment: LRRK2 G2019S enzyme inhibition, ADP-Glo kinase assay; type: biochemical; parameters: purchased SignalChem L10-12GG; conditions: ATP 25 μM
LRRK2 (G2019S), sequence (Q5S007 970-2527 G2019S limits assumed): as the sequence (Q5S007 970-2527 limits assumed) above, with G1050S counted along it
Outline: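 Purified human LRRK2 G2019S (16 ng) with 25 μM ATP and 0.2 μg substrate, 2 h at 25° C. in Tris-HCl pH 7.4, MgCl2, BSA, DTT buffer; compounds at 12 final concentrations, 50 μM down to 0.000001024 μM. ADP-Glo luminescence versus solvent control gave IC50.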

human GST-DYRK1A = target: T2, human GST-DYRK1A (Homo sapiens, UniProt Q13627); experiment: GST-DYRK1A enzyme inhibition, ADP-Glo kinase assay; type: biochemical; conditions: ATP 10 μM, GST-DYRK1A full length, read-out: DYRK1 IC50
T2 construct: purified human GST-DYRK1A (full length, Thermo Scientifics) enzyme; purchased Thermo Scientifics
Outline: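 Full-length human GST-DYRK1A (10 ng) with 10 μM ATP and specific substrate in 40 mM Tris-HCl pH 7.4, 20 mM MgCl2, 0.5 mg/mL BSA, 50 μM DTT, 1 h at 25 °C. ADP formation read by ADP-Glo luminescence relative to solvent control; IC50 from three data sets.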

human DYRK1A and tau = experiment: Inhibition of tau phosphorylation, ClariCELL Kinase Cell-Based Assay, HEK 293 cells expressing human DYRK1A and tau; conditions: for inhibition at 1 µM: HEK293, read-out: % inhibition at 1 uM, tau phosphorylation, compound 1 uM; for inhibition at 0.25 µM / inhibition at 0.5 µM: HEK293, tau phosphorylation; for inhibition at 0.25 µM: compound 0.25 uM; for inhibition at 0.5 µM: compound 0.5 uM
Protocol: An inhibitory effect on tau phosphorylation was determined using the ClariCELL™ Kinase Cell-Based Assay service (commercially available from CamaBio USA, Inc.). Human embryonic kidney (HEK 293) cells temporarily expressing human DYRK1A and tau were exposed to the compound, and then lysed to release cell proteins. In this case, the released tau was captured on a plate, and a degree of phosphorylation was quantified by ELISA using a tau phosphorylation-specific antibody.

CCNc1nc(Nc2ccc(C(=O)N3CCC(N4CCOCC4)CC3)c3c2OCO3)nc2[nH]cc(C(F)(F)F)c12 [Example 213, (7-((4-(ethylamino)-5-(trifluoromethyl)-7H-pyrrolo[2,3-d]pyrimidin-2-yl)amino)benzo[d][1,3]dioxol-4-yl)(4-morpholinopiperidin-1-yl)methanone]
IC50 (human GST-CLK1): < 100 nM | inhibition at 0.5 µM (TNF-α): 11.5% | inhibition at 0.5 µM (IL-6): 32.4% | IC50 (LRRK2): < 100 nM | IC50 (LRRK2 (G2019S)): < 100 nM | IC50 (human GST-DYRK1A): < 100 nM

O=C(c1ccc(Nc2nc(N[C@@H]3CCOC3)c3c(C(F)(F)F)c[nH]c3n2)c2c1OCCO2)N1CCN(C2COC2)CC1 [Example 416, (R)-(4-(oxetan-3-yl)piperazin-1-yl)(8-((4-((tetrahydrofuran-3-yl)amino)-5-(trifluoromethyl)-7H-pyrrolo[2,3-d]pyrimidin-2-yl)amino)-2,3-dihydrobenzo[b] [1,4]dioxin-5-yl)methanone]
IC50 (human GST-CLK1): < 100 nM | inhibition at 1 µM (human DYRK1A and tau): 86.8% | inhibition at 0.25 µM (human DYRK1A and tau): 54.2% | inhibition at 0.5 µM (human DYRK1A and tau): 75.9% | inhibition at 0.5 µM (TNF-α): 8.1% | inhibition at 0.5 µM (IL-6): 45.6% | IC50 (LRRK2 (G2019S)): < 100 nM | IC50 (human GST-DYRK1A): < 100 nM

COCCNc1nc(Nc2ccc(C(=O)N3CCC(N4CCOCC4)CC3)c3c2OCCO3)nc2[nH]cc(C(F)(F)F)c12 [Example 366, (8-((4-((2-methoxyethyl)amino)-5-(trifluoromethyl)-7H-pyrrolo[2,3-d]pyrimidin-2-yl)amino)-2,3-dihydrobenzo[b] [1,4]dioxin-5-yl) (4-morpholino-piperidin-1-yl)methanone]
IC50 (human GST-CLK1): < 100 nM | inhibition at 0.5 µM (TNF-α): 19.2% | inhibition at 0.5 µM (IL-6): 1.1% | IC50 (LRRK2): < 100 nM | IC50 (LRRK2 (G2019S)): < 100 nM | IC50 (human GST-DYRK1A): < 100 nM

CCNc1nc(Nc2ccc(C(=O)N3CCOCC3)c3c2OCO3)nc2[nH]cc(C(F)(F)F)c12 [Example 212, (7-((4-(ethylamino)-5-(trifluoromethyl)-7H-pyrrolo[2,3-d]pyrimidin-2-yl)amino)benzo[d][1,3]dioxol-4-yl)(morpholino)methanone]
IC50 (human GST-CLK1): < 100 nM | inhibition at 0.5 µM (IL-6): 12.6% | IC50 (LRRK2): < 100 nM | IC50 (LRRK2 (G2019S)): < 100 nM | IC50 (human GST-DYRK1A): < 100 nM

COCCNc1nc(Nc2ccc(C(=O)N3CCOCC3)c3c2OCC3)nc2[nH]cc(C(F)(F)F)c12 [Example 442, (7-((4-((2-methoxyethyl)amino)-5-(trifluoromethyl)-7H-pyrrolo[2,3-d]pyrimidin-2-yl)amino)-2,3-dihydrobenzo-furan-4-yl) (morpholino) methanone]
IC50 (human GST-CLK1): < 100 nM | inhibition at 1 µM (human DYRK1A and tau): 80.8% | inhibition at 0.25 µM (human DYRK1A and tau): 45% | inhibition at 0.5 µM (human DYRK1A and tau): 51.5% | inhibition at 0.5 µM (TNF-α): 1.9% | inhibition at 0.5 µM (IL-6): 31.4% | IC50 (human GST-DYRK1A): < 100 nM

O=C(c1ccc(Nc2nc(NC3CCOCC3)c3c(C(F)(F)F)c[nH]c3n2)c2c1OCCO2)N1CCN(C2COC2)CC1 [Example 420, (4-(oxetan-3-yl)piperazin-1-yl)(8-((4-((tetrahydro-2H-pyran-4-yl)amino)-5-(trifluoromethyl)-7H-pyrrolo[2,3-d]pyrimidin-2-yl)amino)-2,3-dihydrobenzo[b] [1,4]dioxin-5-yl)methanone]
IC50 (human GST-CLK1): < 100 nM | inhibition at 0.5 µM (TNF-α): 31.6% | inhibition at 0.5 µM (IL-6): 20.2% | IC50 (LRRK2): < 100 nM | IC50 (human GST-DYRK1A): < 100 nM

CC(C)CNc1nc(Nc2ccc(C(=O)N3CCC(N4CCOCC4)CC3)c3c2OCC3)nc2[nH]cc(C(F)(F)F)c12 [Example 448, (7-((4-(iso-butylamino)-5-(trifluoromethyl)-7H-pyrrolo[2,3-d]pyrimidin-2-yl)amino)-2,3-dihydrobenzo-furan-4-yl)(4-morpho-linopiperidin-1-yl)methanone]
IC50 (human GST-CLK1): < 100 nM | inhibition at 0.5 µM (TNF-α): 17.7% | inhibition at 0.5 µM (IL-6): 26.2% | IC50 (LRRK2): < 100 nM | IC50 (LRRK2 (G2019S)): < 100 nM | IC50 (human GST-DYRK1A): 101 to 300 nM

CNc1nc(Nc2ccc(C(=O)N3CC[C@@H](N4CCOCC4)C3)c3c2OCC3)nc2[nH]cc(C(F)(F)F)c12 [Example 237, (R)-(7-((4-(methylamino)-5-(trifluoromethyl)-7H-pyrrolo[2,3-d]pyrimidin-2-yl)amino)-2,3-dihydrobenzofuran-4-yl)(3-morpholinopyrrolidin-1-yl)methanone]
IC50 (human GST-CLK1): < 100 nM | inhibition at 0.5 µM (TNF-α): 18.9% | inhibition at 0.5 µM (IL-6): 41.1% | IC50 (LRRK2): < 100 nM | IC50 (LRRK2 (G2019S)): < 100 nM | IC50 (human GST-DYRK1A): < 100 nM

COCCNc1nc(Nc2ccc(C(=O)N3C[C@@H]4C[C@H]3CO4)c3c2OCCO3)nc2[nH]cc(C(F)(F)F)c12 [Example 410, ((LS,4S)-2-oxa-5-azabicyclo[2.2.1]heptan-5-yl)(8-((4-((2-methoxy-ethyl)amino)-5-(trifluoromethyl)-7H-pyrrolo[2,3-d]pyrimidin-2-yl)amino)-2,3-dihydrobenzo[b] [1,4]dioxin-5-yl)methanone]
IC50 (human GST-CLK1): < 100 nM | inhibition at 0.5 µM (IL-6): 17.8% | IC50 (LRRK2): < 100 nM | IC50 (human GST-DYRK1A): < 100 nM

CNc1nc(Nc2ccc(C(=O)N3CCC(N4C[C@@H]5C[C@H]4CO5)CC3)c3c2OCC3)nc2[nH]cc(C(F)(F)F)c12 [Example 230, (4-((1S,4S)-2-oxa-5-azabicyclo[2.2.1]heptan-5-yl)piperidin-1-yl)(7-((4-(methylamino)-5-(tifluoromethyl)-7H-pyrrolo[2,3-d]pyrimidin-2-yl)amino)-2,3-dihydrobenzofuran-4-yl)methanone]
IC50 (human GST-CLK1): < 100 nM | inhibition at 0.5 µM (TNF-α): 1% | inhibition at 0.5 µM (IL-6): 34% | IC50 (LRRK2): < 100 nM | IC50 (LRRK2 (G2019S)): < 100 nM | IC50 (human GST-DYRK1A): < 100 nM

CCNc1nc(Nc2ccc(C(=O)N3CC[C@@H](N4CCOCC4)C3)c3c2OCC3)nc2[nH]cc(C(F)(F)F)c12 [Example 476, (R)-(7-((4-(ethylamino)-5-(trifluoromethyl)-7H-pyrrolo[2,3-d]pyrimidin-2-yl)amino)-2,3-dihydrobenzo-furan-4-yl)(3-morpholino-pyrrolidin-1-yl)methanone]
IC50 (human GST-CLK1): < 100 nM | inhibition at 0.5 µM (TNF-α): 24.5% | inhibition at 0.5 µM (IL-6): 47.4% | IC50 (LRRK2): < 100 nM | IC50 (LRRK2 (G2019S)): < 100 nM | IC50 (human GST-DYRK1A): < 100 nM

CC(C)Nc1nc(Nc2ccc(C(=O)N3CCC(N4CCOCC4)CC3)c3c2OCC3)nc2[nH]cc(C(F)(F)F)c12 [Example 450, (7-((4-(isopropylamino)-5-(trifluoromethyl)-7H-pyrrolo[2,3-d]pyrimidin-2-yl)amino)-2,3-dihydrobenzo-furan-4-yl)(4-morpho-linopiperidin-1-yl)methanone]
IC50 (human GST-CLK1): < 100 nM | inhibition at 1 µM (human DYRK1A and tau): 84.9% | inhibition at 0.25 µM (human DYRK1A and tau): 37.2% | inhibition at 0.5 µM (human DYRK1A and tau): 66.8% | inhibition at 0.5 µM (TNF-α): 7.5% | inhibition at 0.5 µM (IL-6): 11.4% | IC50 (human GST-DYRK1A): < 100 nM

CCCNc1nc(Nc2ccc(C(=O)N3CCC(N4CCOCC4)CC3)c3c2OCC3)nc2[nH]cc(C#N)c12 [Example 349, 2-((4-(4-morpholino-piperidine-1-carbonyl)-2,3-dihydro-benzofuran-7-yl)amino)-4-(propylamino)-7H-pyrrolo[2,3-d]pyrimidine-5-carbonitrile]
IC50 (human GST-CLK1): < 100 nM | inhibition at 1 µM (human DYRK1A and tau): 53.4% | inhibition at 0.25 µM (human DYRK1A and tau): 21% | inhibition at 0.5 µM (human DYRK1A and tau): 37% | inhibition at 0.5 µM (TNF-α): 36.7% | inhibition at 0.5 µM (IL-6): 32.9% | IC50 (human GST-DYRK1A): < 100 nM
